{
  "source": "paper PMC11649115",
  "about": "“In vitro safety evaluation of dopamine D3R antagonist, R-VK4-116, as a potential medication for the treatment of opioid use disorder” (PLOS ONE, 2024)",
  "key": {"P-gp": {"target": "T1, P-gp (Homo sapiens, UniProt P08183)", "T1 construct": "expressed in transfected cells; host or cells: MDCK-II cells", "T1 sequence (P08183 whole entry)": "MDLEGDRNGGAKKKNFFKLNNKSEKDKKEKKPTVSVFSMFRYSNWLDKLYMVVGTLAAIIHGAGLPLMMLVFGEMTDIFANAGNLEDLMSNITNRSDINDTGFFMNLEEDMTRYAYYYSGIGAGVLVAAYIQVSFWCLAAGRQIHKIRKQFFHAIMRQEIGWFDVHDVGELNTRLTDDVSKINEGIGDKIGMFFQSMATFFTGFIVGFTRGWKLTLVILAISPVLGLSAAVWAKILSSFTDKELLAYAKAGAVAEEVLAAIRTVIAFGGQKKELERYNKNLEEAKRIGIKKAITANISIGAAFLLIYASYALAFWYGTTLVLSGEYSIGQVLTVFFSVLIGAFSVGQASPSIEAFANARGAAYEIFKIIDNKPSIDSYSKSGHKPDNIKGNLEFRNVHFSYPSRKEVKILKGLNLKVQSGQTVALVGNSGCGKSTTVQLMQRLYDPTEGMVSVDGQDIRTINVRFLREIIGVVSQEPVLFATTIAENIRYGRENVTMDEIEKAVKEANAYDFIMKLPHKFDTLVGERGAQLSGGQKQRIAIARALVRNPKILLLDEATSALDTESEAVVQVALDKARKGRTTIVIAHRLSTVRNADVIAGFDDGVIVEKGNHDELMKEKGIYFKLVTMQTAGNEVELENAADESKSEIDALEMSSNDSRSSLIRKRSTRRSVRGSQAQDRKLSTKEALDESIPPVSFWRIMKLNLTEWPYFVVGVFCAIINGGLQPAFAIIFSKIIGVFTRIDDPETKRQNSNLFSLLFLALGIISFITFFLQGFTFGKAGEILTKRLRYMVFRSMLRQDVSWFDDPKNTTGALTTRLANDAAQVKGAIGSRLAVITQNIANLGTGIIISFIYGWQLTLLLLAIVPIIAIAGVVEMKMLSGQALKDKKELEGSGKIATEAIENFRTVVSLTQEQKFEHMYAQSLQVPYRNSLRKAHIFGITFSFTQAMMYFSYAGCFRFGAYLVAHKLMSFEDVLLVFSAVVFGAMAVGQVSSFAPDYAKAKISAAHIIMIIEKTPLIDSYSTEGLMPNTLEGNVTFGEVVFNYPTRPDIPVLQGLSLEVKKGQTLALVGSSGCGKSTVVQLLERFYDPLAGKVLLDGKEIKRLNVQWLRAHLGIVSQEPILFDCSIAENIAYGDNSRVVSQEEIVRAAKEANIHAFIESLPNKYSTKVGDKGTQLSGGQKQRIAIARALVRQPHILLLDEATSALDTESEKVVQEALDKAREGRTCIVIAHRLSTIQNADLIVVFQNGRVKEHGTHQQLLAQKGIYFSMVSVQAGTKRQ", "test": "Transporter mediated assay (substrate/inhibitor), MDCK-II cells", "format": "in vitro ADME", "details": "human, probe quinidine 0.1 μM", "method": "(§1) The MDCK-II cells were treated to express the transporter of interest.\n(§2) For BCRP and P-gp, the apparent permeability Papp and Efflux Ratio (ER) were calculated [16]. Net basal (B) to apical (A) flux (B → A) of the substrate transport (pmol/min/cm^2) by BCRP or P-gp was calculated by subtracting A → B flux from B → A flux."}, "BCRP": {"target": "T2, BCRP (Homo sapiens, UniProt Q9UNQ0)", "T2 construct": "expressed in transfected cells; host or cells: MDCK-II cells", "T2 sequence (Q9UNQ0 1-655)": "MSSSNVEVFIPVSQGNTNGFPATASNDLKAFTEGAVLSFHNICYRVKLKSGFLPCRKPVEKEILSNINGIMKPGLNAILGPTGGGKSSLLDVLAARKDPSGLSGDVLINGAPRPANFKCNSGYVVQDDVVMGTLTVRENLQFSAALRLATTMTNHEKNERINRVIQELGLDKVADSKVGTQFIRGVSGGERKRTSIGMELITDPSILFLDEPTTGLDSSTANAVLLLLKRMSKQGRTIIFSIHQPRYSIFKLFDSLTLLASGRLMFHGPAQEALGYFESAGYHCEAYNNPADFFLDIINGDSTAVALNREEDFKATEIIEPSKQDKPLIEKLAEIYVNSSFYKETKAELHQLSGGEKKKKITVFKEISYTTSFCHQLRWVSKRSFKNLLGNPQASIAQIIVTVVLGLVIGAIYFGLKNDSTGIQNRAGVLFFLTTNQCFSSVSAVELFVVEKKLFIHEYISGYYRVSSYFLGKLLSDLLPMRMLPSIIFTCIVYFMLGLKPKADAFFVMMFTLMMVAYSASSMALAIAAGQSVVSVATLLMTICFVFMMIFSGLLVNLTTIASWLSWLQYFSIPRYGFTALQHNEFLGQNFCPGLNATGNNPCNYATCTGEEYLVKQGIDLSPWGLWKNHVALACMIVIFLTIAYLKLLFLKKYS", "test": "Transporter mediated assay (substrate/inhibitor), MDCK-II cells", "format": "in vitro ADME", "details": "BCRP, substrate test, 2 µM", "method": "as §1, §2"}, "[1]": {"test": "Metabolic stability in hepatocyte", "details": "human, hepatocytes", "method": "(§3) CYP3A4 substrate Midazolam (10 μM) was prepared and incubated in the same manner. […] In addition, in vitro half-life (t1/2, min) and intrinsic clearance (CLint, μl/min/10^6 cells) were calculated [10, 11]."}, "human hepatocytes": {"tested_on": "human hepatocytes", "test": "Metabolic stability in hepatocyte", "details": "human hepatocytes, 10 μM", "method": "as §3"}, "[2]": {"test": "Metabolic stability in liver microsomes"}, "[3]": {"test": "Metabolic stability in liver microsomes", "details": "for % remaining: dog liver microsomes, 10 μM"}, "[4]": {"test": "Metabolic stability in hepatocyte", "details": "Beagle, dog, hepatocytes", "method": "as §3"}, "dog hepatocytes": {"tested_on": "dog hepatocytes", "test": "Metabolic stability in hepatocyte", "details": "dog hepatocytes, 10 μM", "method": "as §3"}, "[5]": {"test": "Stability in the absence of hepatocytes", "details": "no hepatocytes, 10 μM", "method": "as §3"}, "[6]": {"test": "Metabolic stability in liver microsomes", "remark": "listed apart in the source"}, "[7]": {"test": "Metabolic stability in liver microsomes", "details": "for % remaining: monkey liver microsomes, 10 μM"}, "[8]": {"test": "Metabolic stability in hepatocyte", "details": "Sprague Dawley, rat, hepatocytes", "method": "as §3"}, "rat hepatocytes": {"tested_on": "rat hepatocytes", "test": "Metabolic stability in hepatocyte", "details": "rat hepatocytes, 10 μM", "method": "as §3"}, "HepG2 cells": {"tested_on": "HepG2 cells", "test": "Mitochondrial toxicity (MT) assay panel", "format": "cell-based", "details": "HepG2, 100 µM", "protocol": "The assay results were presented as % cell viability. […] After each incubation, the cells were harvested and lysed to test the MT assay panel. The Zalcitabine (positive control) was also included in this assay (Fig 3 in S1 File). The levels of Mitochondrial Oxidative Phosphorylation (OXPHOS) complex 1 (NADH dehydrogenase; ab178011, lot #GR 3339973–1), complex 3 (CytC reductase; ab124537, lot #GR3276896-3), complex 4 (CytC Oxidase; ab179880, lot #GR3273194-1), and complex 5 (ATP synthase; ab124539, lot #GR3267780-4) in the cell lysates were determined using respective indirect ELISA as per manufacturer’s instructions. The total ATP content of the cell lysates was determined using an ATP assay kit (ab83355, lot #GR3314128-2, Abcam, Cambridge, MA). The Caspase 3 content of the cell lysates was determined using the Caspase-3 assay kit (ab39401, lot #GR3322733-1, Abcam, Cambridge, MA). In addition, the total glutathione content was determined using the total glutathione (GSSG/GSH) assay kit (STA-312, lot #09100263, Oxiselect™, San Diego, CA). Using an Oxiselect™ ROS/RNS assay kit (STA-347, lot #7081343, Cell Biolabs Inc. San Diego, CA), the ROS/RNS content of the cell lysates was determined by fluorescence assay."}},
  "data": [
    {"smiles": "COc1cc2c(cc1OC)CN(CCc1ccc(NC(=O)c3cccc4c(=O)c5cccc(OC)c5[nH]c34)cc1)CC2", "note": "[elacridar]", "values": [
      {"measurement": "inhibition at 3 μM", "setting": "P-gp", "result": "98.4 ± 0.53", "unit": "%"}
    ]},
    {"smiles": "COc1cc2nc(N3CCN(C(=O)c4ccco4)CC3)nc(N)c2cc1OC", "note": "[prazosin, reference compound]", "values": [
      {"measurement": "Papp A→B at 2 µM", "setting": "BCRP", "result": "8.06 ± 0.76", "unit": "×10⁻⁶ cm/s"},
      {"measurement": "Papp B→A at 2 µM", "setting": "BCRP", "result": "47.7 ± 2.77", "unit": "×10⁻⁶ cm/s"}
    ]},
    {"smiles": "Cc1ncc2n1-c1ccc(Cl)cc1C(c1ccccc1F)=NC2", "note": "[Midazolam, reference compound]", "values": [
      {"measurement": "half-life at 10 μM", "setting": "[1]", "result": 4.45, "unit": "h"},
      {"measurement": "hepatocyte CLint at 10 μM", "setting": "[1]", "result": 5.2, "unit": "µL/min/1e6 cells"},
      {"measurement": "% remaining Vs T = 0 min", "setting": "human hepatocytes; 0 min", "result": 100.0, "unit": "%"},
      {"measurement": "% remaining Vs T = 0 min", "setting": "human hepatocytes; 30 min", "result": 91.7, "unit": "%"},
      {"measurement": "% remaining Vs T = 0 min", "setting": "human hepatocytes; 60 min", "result": 85.3, "unit": "%"},
      {"measurement": "% remaining Vs T = 0 min", "setting": "human hepatocytes; 90 min", "result": 80.7, "unit": "%"},
      {"measurement": "% remaining Vs T = 0 min", "setting": "human hepatocytes; 120 min", "result": 72.4, "unit": "%"},
      {"measurement": "% remaining", "setting": "[2]; human liver microsomes, 10 μM, 120 min", "result": 0.0, "unit": "%"},
      {"measurement": "remaining at 0 h, 10 μM", "setting": "[2]; human, microsomes, pH 7.4", "result": 100, "unit": "%"},
      {"measurement": "remaining at 0.5 h, 10 μM", "setting": "[2]; human, microsomes, pH 7.4", "result": 9.7, "unit": "%"},
      {"measurement": "remaining at 1 h, 10 μM", "setting": "[2]; human, microsomes, pH 7.4", "result": 1, "unit": "%"},
      {"measurement": "remaining at 1.5 h, 10 μM", "setting": "[2]; human, microsomes, pH 7.4", "result": 0.2, "unit": "%"},
      {"measurement": "remaining at 2 h, 10 μM", "setting": "[2]; human, microsomes, pH 7.4", "result": 101, "unit": "%"},
      {"measurement": "% remaining", "setting": "[3]; 90 min", "result": 0.0, "unit": "%"},
      {"measurement": "% remaining", "setting": "[3]; 120 min", "result": 0.0, "unit": "%"},
      {"measurement": "remaining at 0 h, 10 μM", "setting": "[3]; dog, microsomes, pH 7.4", "result": 100, "unit": "%"},
      {"measurement": "remaining at 0.5 h, 10 μM", "setting": "[3]; dog, microsomes, pH 7.4", "result": 0.3, "unit": "%"},
      {"measurement": "remaining at 1 h, 10 μM", "setting": "[3]; dog, microsomes, pH 7.4", "result": 0.1, "unit": "%"},
      {"measurement": "remaining at 2 h, 10 μM", "setting": "[3]; dog, microsomes, pH 7.4", "result": 95.8, "unit": "%"},
      {"measurement": "half-life at 10 μM", "setting": "[4]", "result": 0.855, "unit": "h"},
      {"measurement": "hepatocyte CLint at 10 μM", "setting": "[4]", "result": 27, "unit": "µL/min/1e6 cells"},
      {"measurement": "% remaining Vs T = 0 min", "setting": "dog hepatocytes; 0 min", "result": 100.0, "unit": "%"},
      {"measurement": "% remaining Vs T = 0 min", "setting": "dog hepatocytes; 30 min", "result": 66.6, "unit": "%"},
      {"measurement": "% remaining Vs T = 0 min", "setting": "dog hepatocytes; 60 min", "result": 50.8, "unit": "%"},
      {"measurement": "% remaining Vs T = 0 min", "setting": "dog hepatocytes; 90 min", "result": 31.2, "unit": "%"},
      {"measurement": "% remaining Vs T = 0 min", "setting": "dog hepatocytes; 120 min", "result": 19.5, "unit": "%"},
      {"measurement": "% remaining Vs T = 0 min", "setting": "[5]; 0 min", "result": 100.0, "unit": "%"},
      {"measurement": "% remaining Vs T = 0 min", "setting": "[5]; 30 min", "result": 97.7, "unit": "%"},
      {"measurement": "% remaining Vs T = 0 min", "setting": "[5]; 60 min", "result": 97.6, "unit": "%"},
      {"measurement": "% remaining Vs T = 0 min", "setting": "[5]; 90 min", "result": 98.6, "unit": "%"},
      {"measurement": "% remaining Vs T = 0 min", "setting": "[5]; 120 min", "result": 98.5, "unit": "%"},
      {"measurement": "% remaining", "setting": "[6]; rat liver microsomes, 10 μM, 120 min", "result": 0.0, "unit": "%"},
      {"measurement": "remaining at 0 h, 10 μM", "setting": "[6]; rat, microsomes, pH 7.4", "result": 100, "unit": "%"},
      {"measurement": "remaining at 0.5 h, 10 μM", "setting": "[6]; rat, microsomes, pH 7.4", "result": 5.8, "unit": "%"},
      {"measurement": "remaining at 1 h, 10 μM", "setting": "[6]; rat, microsomes, pH 7.4", "result": 0.4, "unit": "%"},
      {"measurement": "remaining at 1.5 h, 10 μM", "setting": "[6]; rat, microsomes, pH 7.4", "result": 0.1, "unit": "%"},
      {"measurement": "remaining at 2 h, 10 μM", "setting": "[6]; rat, microsomes, pH 7.4", "result": 102, "unit": "%"},
      {"measurement": "% remaining", "setting": "[7]; 60 min", "result": 0.0, "unit": "%"},
      {"measurement": "% remaining", "setting": "[7]; 90 min", "result": 0.0, "unit": "%"},
      {"measurement": "% remaining", "setting": "[7]; 120 min", "result": 0.0, "unit": "%"},
      {"measurement": "remaining at 0 h, 10 μM", "setting": "[7]; monkey, microsomes, pH 7.4", "result": 100, "unit": "%"},
      {"measurement": "remaining at 0.5 h, 10 μM", "setting": "[7]; monkey, microsomes, pH 7.4", "result": 0.1, "unit": "%"},
      {"measurement": "remaining at 2 h, 10 μM", "setting": "[7]; monkey, microsomes, pH 7.4", "result": 91.8, "unit": "%"},
      {"measurement": "half-life at 10 μM", "setting": "[8]", "result": 3.22, "unit": "h"},
      {"measurement": "hepatocyte CLint at 10 μM", "setting": "[8]", "result": 7.2, "unit": "µL/min/1e6 cells"},
      {"measurement": "% remaining Vs T = 0 min", "setting": "rat hepatocytes; 0 min", "result": 100.0, "unit": "%"},
      {"measurement": "% remaining Vs T = 0 min", "setting": "rat hepatocytes; 30 min", "result": 89.0, "unit": "%"},
      {"measurement": "% remaining Vs T = 0 min", "setting": "rat hepatocytes; 60 min", "result": 77.8, "unit": "%"},
      {"measurement": "% remaining Vs T = 0 min", "setting": "rat hepatocytes; 90 min", "result": 70.5, "unit": "%"},
      {"measurement": "% remaining Vs T = 0 min", "setting": "rat hepatocytes; 120 min", "result": 65.7, "unit": "%"}
    ]},
    {"smiles": "Nc1ccn([C@H]2CC[C@@H](CO)O2)c(=O)n1", "note": "[zalcitabine]", "values": [
      {"measurement": "OXPHOS 5 and total ATP levels, caspase 3 or ROS/RNS levels", "setting": "HepG2 cells; 2-week", "result": "No significant decrease"},
      {"measurement": "decrease in OXPHOS 1", "setting": "HepG2 cells; 2-week", "result": "~ 80%"},
      {"measurement": "decrease in OXPHOS 3", "setting": "HepG2 cells; 2-week", "result": "~ 20%"},
      {"measurement": "decrease in OXPHOS 4", "setting": "HepG2 cells; 2-week", "result": "~ 70%"},
      {"measurement": "increase in total glutathione content", "setting": "HepG2 cells; two weeks", "result": "~ 35%"}
    ]}
  ]
}
